Values after ≈ are worked out from the molar mass of the structure shown. Like-named read-outs stand apart in the source and are kept apart here.
What was measured:
Format in all cases: cell-based
[1] = system: Escherichia coli NIHJ; experiment: MIC against Escherichia coli NIHJ
From the text: (§1) Below are described the antibacterial activities of the compounds in the compositions according to this invention.
(§2) The testing method complied with the standard method of Japan Sociaty of Chemotherapy.

[2] = system: Staphylococcus aureus FDA 209P; experiment: MIC against Staphylococcus aureus FDA 209P
From the text: as §1, §2

[3] = system: Desulfovibrio desulfuricans IFO 13699; experiment: MIC against Desulfovibrio desulfuricans
From the text: as §1, §2

[4] = Escherichia coli, Table 2, derivatives having a carboxylate radical, heart infusion agar, 37° C., 24 hours, read-out: MIC
[5] = Staphylococcus aureus, FDA209P, 24 h
[6] = Desulfovibrio desulfuricans, IFO13699, 24 h
[7] = Desulfovibrio desulfuricans, IFO13699, Table 1, azaalkenelactams, heart infusion agar, 37° C., 24 hours, read-out: MIC
[8] = Table 1, azaalkenelactams, heart infusion agar, 37° C., 24 hours
[9] = Escherichia coli, Table 1, azaalkenelactams, heart infusion agar, 37° C., 24 hours, read-out: MIC
[10] = Table 2, derivatives having a carboxylate radical, heart infusion agar, 37° C., 24 hours

## CCCCCC[C@@H](O)C/C=C\CCCCCCCC(=O)NCCN1CC[N+](CC(=O)[O-])=CC(C)(C)C1=O [4-ricinolamidoethyl-6,6-dimethyl-1-azonia-4-azacyclohept-7-en-5-one-1-acetate]
[1]; [4]
  MIC: 1600 µg/mL (≈ 3070 µM)
[2]; [5]
  MIC: 400 µg/mL (≈ 767 µM)
[3]; [6]
  MIC: 50 µg/mL (≈ 95.8 µM)

## CCCCCCCCCCCCN1CC[N+](CC(=O)[O-])=C(C)CC1=O [4-dodecyl-7-methyl-1-azonia-4-azacyclohept-7-en-5-on-1-acetate]
[1]; [4]
  MIC: 3200 µg/mL (≈ 9080 µM)
[2]; [5]
  MIC: 50 µg/mL (≈ 142 µM)
[3]; [6]
  MIC: 12.5 µg/mL (≈ 35.5 µM)

## CCCCCCCCCCCCC(O)CNCCN1CC[N+](CC(=O)[O-])=C(C)CC1=O (stereo not drawn) [4-(2-hydroxytetradecyl)aminoethyl-7-methyl-1-azonia-4-azacyclohept-7-en-5-one-1-acetate]
[1]; Escherichia coli, 24 h
  MIC: 100 µg/mL (≈ 227 µM)
[2]; [5]
  MIC: 50 µg/mL (≈ 114 µM)
[3]; [6]
  MIC: 12.5 µg/mL (≈ 28.4 µM)

## CCCCCCCCCCCCCCCCCCCCC(O)CNCCNCCN1CCCN=C(C)CC1=O (stereo not drawn) [Example 30, 1-(2-hydroxy)docosylaminoethylaminoethyl-4-methyl-3,6,7,8-tetrahydro-1,5-diazocin-2-one]
[1]; Escherichia coli, 24 h
  MIC: 25 µg/mL (≈ 45.4 µM)
[2]; [5]
  MIC: 12.5 µg/mL (≈ 22.7 µM)
[3]; [7]
  MIC: 3.12 µg/mL (≈ 5.66 µM)

## CCCCCCCCCCCCC(O)CN1CCCN=C(C)CC1=O (stereo not drawn) [Example 27, 1-(2-hydroxy)tetradecyl-4-methyl-3,6,7,8-tetrahydro-1,5-diazocin-2-one]
[1]; Escherichia coli, 24 h
  MIC: 25 µg/mL (≈ 70.9 µM)
[2]; [5]
  MIC: 12.5 µg/mL (≈ 35.5 µM)
[3]; [7]
  MIC: 6.25 µg/mL (≈ 17.7 µM)

## CCCCCCCCCCCCCCCCCCCCCC(=O)OCCCN1CCCN=C(C)CC1=O [Example 25, 1-behenoyloxypropyl-4-methyl-3,6,7,8-tetrahydro-1,5-diazocin-2-one]
[1]; [8]
  MIC: 1600 µg/mL (≈ 3070 µM)
[2]
  MIC: 200 µg/mL (≈ 384 µM)
[3]
  MIC: 50 µg/mL (≈ 96 µM)

## CCCCCCCC(=O)NCCN1CCN=C(C)CC1=O [Example 23, 4-octamidoethyl-7-methyl-3,6-dihydro-2H-1,4-diazepin-5-one]
[1]; Escherichia coli, 24 h
  MIC: 25 µg/mL (≈ 84.6 µM)
[2]; [5]
  MIC: 25 µg/mL (≈ 84.6 µM)
[3]; [6]
  MIC: 50 µg/mL (≈ 169 µM)

## CCCCCCCCCc1ccc(OCC(O)CNCCNCCNCCN2CCN=CC(C)C2=O)cc1 (stereo not drawn) [Example 52, 4-nonylphenoxy(2-hydroxy)propylaminoethylaminoethylaminoethyl-6-methyl-3,6-dihydro-2H-1,4-diazepin-5-one]
[1]; [9]
  MIC: 100 µg/mL (≈ 188 µM)
[2]; Staphylococcus aureus, FDA209P, Table 1, azaalkenelactams, heart infusion agar, 37° C., 24 hours, read-out: MIC
  MIC: 100 µg/mL (≈ 188 µM)
[3]; [6]
  MIC: 50 µg/mL (≈ 94 µM)

## 1-coconutalkyl-4-methyl-1-aza-5-azoniacyclooct-4-en-2-one-5-acetate
[1]; [10]
  MIC: 3200 µg/mL
[2]
  MIC: 200 µg/mL
[3]
  MIC: 12.5 µg/mL

## 4-octoxy(2-hydroxy)propyl-7-methyl-3,6-dihydro-2H-1,4-diazepin-5-one [Example 31]
[1]
  MIC: 400 µg/mL
[2]
  MIC: 50 µg/mL
[3]
  MIC: 50 µg/mL

## CCCCCCCCCc1ccc(OCC(O)CNCCNCCNCCN2CC[N+](CC(=O)[O-])=CC(C)C2=O)cc1 (stereo not drawn) [4-nonylphenoxy(2-hydroxy)propylaminoethylaminoethylaminoethyl-6-methyl-1-azonia-4-azacyclohept-7-en-5-one-1-acetate]
[1]; Escherichia coli, 24 h
  MIC: 400 µg/mL (≈ 678 µM)
[2]; [5]
  MIC: 200 µg/mL (≈ 339 µM)
[3]; [6]
  MIC: 50 µg/mL (≈ 84.8 µM)

## CCCCCCCCCCCC[N+](C)(C)CC(=O)[O-] [Lauryldimethylbetaine, lauryldimethylbetaine, reference compound]
[1]; [4]
  MIC: ≥ 10000 µg/mL
[2]; Staphylococcus aureus, FDA209P, Table 2, derivatives having a carboxylate radical, heart infusion agar, 37° C., 24 hours, read-out: MIC
  MIC: ≥ 10000 µg/mL
[3]; Desulfovibrio desulfuricans, IFO13699, Table 2, derivatives having a carboxylate radical, heart infusion agar, 37° C., 24 hours, read-out: MIC
  MIC: 1600 µg/mL (≈ 5890 µM)

## CCCCCCCCCCC(O)CN1CCN=CC(C)C1=O (stereo not drawn) [Example 43, 4-(2-hydroxy)dodecyl-6-methyl-3,6-dihydro-2H-1,4-diazepin-5-one]
[1]; Escherichia coli, 24 h
  MIC: 400 µg/mL (≈ 1290 µM)
[2]; [5]
  MIC: 12.5 µg/mL (≈ 40.3 µM)
[3]; [6]
  MIC: 12.5 µg/mL (≈ 40.3 µM)

## CC1=NCCN(CC(C)OCC(C)OCC(C)OCc2ccc(C)cc2)C(=O)C1 (stereo not drawn) [Example 39, 4-methylbenzylpoly(2moles)oxypropyleneoxypropyl-7-methyl-3,6-dihydro-2H-1,4-diazepin-5-one]
[1]; Escherichia coli, 24 h
  MIC: 200 µg/mL (≈ 494 µM)
[2]; [5]
  MIC: 25 µg/mL (≈ 61.8 µM)
[3]; [6]
  MIC: 50 µg/mL (≈ 124 µM)

## 1-hydroxyethyl-2-undecylimidazolineumbetaine [reference compound]
[1]; [10]
  MIC: ≥ 10000 µg/mL
[2]; [10]
  MIC: 3600 µg/mL
[3]
  MIC: 400 µg/mL

## CCCCCCCCCCCCN1CCC[N+](CC(=O)[O-])=C(C)CC1=O [1-dodecyl-4-methyl-1-aza-5-azoniacyclooct-4-en-2-one-5-acetate]
[1]; [4]
  MIC: 3200 µg/mL (≈ 8730 µM)
[2]; [5]
  MIC: 100 µg/mL (≈ 273 µM)
[3]; [6]
  MIC: 12.5 µg/mL (≈ 34.1 µM)

## CCCCCCCCCc1ccc(OCC(O)CNCCNCCNCCN2CC[N+](CC(=O)[O-])=C(C)CC2=O)cc1 (stereo not drawn) [4-nonylphenoxy(2-hydroxy)propylaminoethylaminoethylaminoethyl-7-methyl-1-azonia-4-azacyclohept-7-en-5-one-1-acetate]
[1]; [4]
  MIC: 800 µg/mL (≈ 1360 µM)
[2]; [5]
  MIC: 100 µg/mL (≈ 170 µM)
[3]; [6]
  MIC: 50 µg/mL (≈ 84.8 µM)

## CCCCCCCCc1ccc(OCCOC(C)COC(C)CN2CC[N+](CC(=O)[O-])=C(C)CC2=O)cc1 (stereo not drawn)
[1]; [4]
  MIC: 800 µg/mL (≈ 1500 µM)
[2]; [5]
  MIC: 50 µg/mL (≈ 93.9 µM)
[3]; [6]
  MIC: 50 µg/mL (≈ 93.9 µM)

## 4-(2-hydroxyhexadecyl)aminoethyl-6-methyl-1-azonia-4-azacyclohept-7-en-5-one-1-acetate
[1]
  MIC: 100 µg/mL
[2]
  MIC: 12.5 µg/mL
[3]; [10]
  MIC: 3.12 µg/mL

## 4-behenoyloxypropyl-6-methyl-4aza-1-azoniacyclooct-8-en-5-one-1-acetate
[1]; [10]
  MIC: 800 µg/mL
[2]
  MIC: 200 µg/mL
[3]
  MIC: 25 µg/mL

## CCCCCCCCCCCCNCCCN1CCC[N+](CC(=O)[O-])=C(C)CC1=O [1-dodecylaminopropyl-4-methyl-1-aza-5-azoniacyclooct-4-en-2-one-5-acetate]
[1]; Escherichia coli, 24 h
  MIC: 100 µg/mL (≈ 236 µM)
[2]; [5]
  MIC: 12.5 µg/mL (≈ 29.5 µM)
[3]; [6]
  MIC: 50 µg/mL (≈ 118 µM)

## CCCCCCCCCCCCN1CCCN=CC(C)C1=O (stereo not drawn) [Example 44, 1-dodecyl-3-methyl-3,6,7,8-tetrahydro-1,5-diazocin-2-one]
[1]; [9]
  MIC: 800 µg/mL (≈ 2590 µM)
[2]; [5]
  MIC: 50 µg/mL (≈ 162 µM)
[3]; [6]
  MIC: 25 µg/mL (≈ 81 µM)

## CCCCCCCCCCCC(=O)NCCN1CCN=CC(C)C1=O (stereo not drawn) [Example 46, 4-lauramidoethyl-6-methyl-3,6-dihydro-2H-1,4-diazepin-5-one]
[1]; Escherichia coli, 24 h
  MIC: 25 µg/mL (≈ 71.1 µM)
[2]; [5]
  MIC: 6.25 µg/mL (≈ 17.8 µM)
[3]; [6]
  MIC: 6.25 µg/mL (≈ 17.8 µM)

## CCCCCCCCCCCCNCCCN1CCCN=C(C)CC1=O [Example 36, 1-dodecylaminopropyl-4-methyl-3,6,7,8-tetrahydro-1,5-diazocin-2-one]
[1]; Escherichia coli, 24 h
  MIC: 50 µg/mL (≈ 137 µM)
[2]; [5]
  MIC: 12.5 µg/mL (≈ 34.2 µM)
[3]; [6]
  MIC: 25 µg/mL (≈ 68.4 µM)

## 4-methylbenzylpoly(2 moles)oxypropyleneoxypropyl-6-methyl-2,3,6,7-tetrahydro-1,4-diazocin-5-one [Example 67]
[1]
  MIC: 400 µg/mL
[2]
  MIC: 200 µg/mL
[3]
  MIC: 50 µg/mL

## CCCCCCCCCCCCN1CCC[N+](CC(=O)[O-])=CC(C)C1=O (stereo not drawn) [1-dodecyl-3-methyl-1-aza-5-azoniacyclooct-4-en-2-one-5-acetate]
[1]; [4]
  MIC: 1600 µg/mL (≈ 4370 µM)
[2]; [5]
  MIC: 50 µg/mL (≈ 136 µM)
[3]; [6]
  MIC: 25 µg/mL (≈ 68.2 µM)

## CCCCCCCCCCC(O)CN1CCCN=CC(C)C1=O (stereo not drawn) [Example 45, 1-(2-hydroxy)dodecyl-3-methyl-3,6,7,8-tetrahydro-1,5-diazocin-2-one]
[1]; [8]
  MIC: 800 µg/mL (≈ 2470 µM)
[2]; [8]
  MIC: 100 µg/mL (≈ 308 µM)
[3]; [8]
  MIC: 50 µg/mL (≈ 154 µM)

## CCCCCCCCCCCC(=O)OCCN1CC[N+](CC(=O)[O-])=CC(C)C1=O (stereo not drawn) [4-lauroyloxyethyl-6-methyl-1-azonia-4-azacyclohept-7-en-5-one-1-acetate]
[1]; Escherichia coli, 24 h
  MIC: 200 µg/mL (≈ 487 µM)
[2]; [5]
  MIC: 50 µg/mL (≈ 122 µM)
[3]; [6]
  MIC: 50 µg/mL (≈ 122 µM)

## CCCCCCCCCc1ccc(OCC(O)CNCCNCCNCCN2CC[N+](CC(=O)[O-])=CCC(C)C2=O)cc1 (stereo not drawn) [4-nonylphenoxy(2-hydroxy)propylaminoethylaminoethylaminoethyl-6-methyl-4-aza-1-azoniacyclooct-8-en-5-one-1-acetate]
[1]; Escherichia coli, 24 h
  MIC: 400 µg/mL (≈ 662 µM)
[2]; [5]
  MIC: 200 µg/mL (≈ 331 µM)
[3]; [6]
  MIC: 50 µg/mL (≈ 82.8 µM)

From US4346087A, “Antibacterial surface active agent containing azaalkenelactam” (priority 1979, dated 1982)
